Biological target: Aldo-keto reductase family 1 member B1 (Rattus norvegicus, UniProt P07943)
Assay: Inhibition of Rattus norvegicus (rat) lens aldose reductase

IC50 [nM]	Compound
13700	O=C(/C=C/c1ccc(Cl)cc1)c1cc(Cl)ccc1O
400	Cc1ccc(/C=C/C(=O)c2ccc(O)cc2O)c(C)c1
8200	COc1ccc(/C=C/C(=O)c2cc(Cl)ccc2O)c(OC)c1OC
400	O=C(/C=C/c1ccc(O)cc1)c1ccc(O)cc1O [ISOLIQUIRITIGENIN]
2150	O=C(/C=C/c1ccc(O)cc1)c1cc(Br)ccc1O
4250	O=C(/C=C/c1ccc(O)cc1)c1ccccc1O
5390	O=C(/C=C/c1ccc(O)cc1)c1cc(O)ccc1O
930	COc1ccc(/C=C/C(=O)c2ccc(O)cc2O)cc1
450	O=C(/C=C/c1ccc(O)c(O)c1)c1ccc(O)cc1O [BUTEIN]
2230	O=C(/C=C/c1ccc(O)c(O)c1O)c1cc(Cl)ccc1O
3270	COc1cccc(O)c1C(=O)/C=C/c1ccc(O)cc1
1010	O=C(/C=C/c1ccc(O)cc1)c1cc(Cl)ccc1O
7800	Cc1ccc(/C=C/C(=O)c2cc(Cl)ccc2O)c(C)c1
1250	O=C(/C=C/c1ccccc1O)c1cc(Cl)ccc1O
10500	O=C(/C=C/c1cccc(O)c1)c1cc(Cl)ccc1O
1210	O=C(/C=C/c1ccc(Cl)c(Cl)c1)c1ccc(O)cc1O
850	O=C(/C=C/c1ccc(O)cc1O)c1cc(Cl)ccc1O
160	O=C(/C=C/c1ccc(O)cc1O)c1ccc(O)cc1O
380	O=C(/C=C/c1ccccc1O)c1ccc(O)cc1O

IC50 [nM]	Compound
11800	COc1ccc(/C=C/C(=O)c2cc(Cl)ccc2O)cc1OC
1150	CN(C)c1ccc(/C=C/C(=O)c2ccc(O)cc2O)cc1
1010	O=C(/C=C/c1ccccc1)c1ccc(O)cc1O [2',4'-DIHYDROXYCHALCONE]
1050	COc1ccc(/C=C/C(=O)c2ccc(O)cc2O)cc1OC
5240	COc1ccc(C(=O)/C=C/c2ccc(O)cc2)c(O)c1
3210	O=C(/C=C/c1ccc([N+](=O)[O-])cc1)c1ccc(O)cc1O
580	O=C(/C=C/c1cc(O)ccc1O)c1ccc(O)cc1O
1120	O=C(/C=C/c1ccc(Br)cc1)c1ccc(O)cc1O
810	Cc1ccc(/C=C/C(=O)c2ccc(O)cc2O)cc1
9800	Cc1ccc(/C=C/C(=O)c2cc(Cl)ccc2O)cc1
14800	COc1ccc(/C=C/C(=O)c2cc(Cl)ccc2O)cc1
3180	COc1ccc(O)c(C(=O)/C=C/c2ccc(O)cc2)c1
910	COc1ccc(/C=C/C(=O)c2ccc(O)cc2O)cc1F
10900	COc1ccc(/C=C/C(=O)c2cc(Cl)ccc2O)cc1F
10200	Cc1cccc(/C=C/C(=O)c2cc(Cl)ccc2O)c1
11500	O=C(/C=C/c1ccccc1)c1cc(Cl)ccc1O
750	O=C(/C=C/c1ccc(O)c(O)c1O)c1ccc(O)cc1O
4380	Cc1ccc(O)c(C(=O)/C=C/c2ccc(O)cc2)c1
550	O=C(/C=C/c1ccc(O)c(O)c1)c1cc(Cl)ccc1O

Biological target: Aldo-keto reductase family 1 member B1 (Homo sapiens, UniProt P15121)
Assay: Inhibition of Homo sapiens (human) aldose reductase

IC50 [nM]	Compound
374	CC1=C(CC(=O)O)c2cc(F)ccc2/C1=C\c1ccc([S+](C)[O-])cc1 (stereo not given) [SULINDAC]
2390	Cc1ccc(C(=O)c2ccc(CC(=O)O)n2C)cc1 [TOLMETIN]

Reference: ChEMBL document CHEMBL3046187, “Challenges in docking 2-hydroxy and 2,4-dihydroxychalcones into the binding site of ALR2” (Med Chem Res, 2013)
